System: Human fibroblast cells in culture
Test: Common laser pre-treatment compounds incubated 45 min with cultured human fibroblasts, visual inspection
Conditions: for Viability/Inspection 24 hrs / Viability/Inspector 1 week: cells rinsed, fresh media; for Viability/Inspection 24 hrs: observed 24 hours post exposure; for Viability/Inspector 1 week: observed one week post exposure; for Viability/nspection 45 min: visual inspection after 45 minutes incubation with compound
Protocol: AG07999 human skin fibroblasts (HSF; Coriell, Camden, N.J.) were grown to confluence in minimal essential media (MEM; Gibco, Grand Island, N.Y.) supplemented with 10% FBS (Hyclone, Logan, Utah), 20 mM L-glutamine, and 20 mM Glutamax™ (Gibco). Cells were maintained in an incubator at 37° C. and 5% CO2 and serially passaged with trypsin digestion at a 1:3 ratio as needed.
This example describes in vitro (in silico) testing of compounds added to human fibroblast cell cultures to determine any detrimental effects to the cells.
The remaining compositions and mixtures were tested as they are expected to be common treatments that might be used for numbing or cleansing of skin prior to laser treatment and cell delivery, or coagulation compounds, that are available in most physician offices. […] In addition, the delivery vehicle for SRF and lidocaine were tested to determine which vehicle (cream, lotion, petrolatum, lipoderm) was least destructive to the cells.

| SMILES | Viability/Inspection 24 hrs | Viability/Inspector 1 week | Viability/nspection 45 min |
| --- | --- | --- | --- |
| CNC[C@H](O)c1ccc(O)c(O)c1 [Epinephrine 1:10,000,000, Epinephrine] | Normal | Confluent/overgrown | Normal |
| CNC[C@H](O)c1ccc(O)c(O)c1 [Epinephrine 1:100,000, Epinephrine] | Normal | Confluent/overgrown | Slight change in morphology, |
| CCN(CC)CC(=O)Nc1c(C)cccc1C [Lidocaine 0.5%, Lidocaine] | Normal | Confluent/overgrown | Normal |
